Measured values from patent US20060293307A1, “Oxazolidinone derivatives as antimicrobials” (priority 2002, published 2006).
Read-outs that look alike come from different tables or passages of the source.

Assays:
Experiment in all cases: MIC, agar incorporation method
[1] = system: E. faecalis 29212; type: cell-based; details: S. No. 17, E. faecalis 29212
[2] = system: S. pyogenes 19615; type: cell-based, Streptococcus pyogenes
[3] = system: S. haemo ATCC 29970; type: cell-based
[4] = system: S. aureus (MRSA) ST450; type: cell-based, Staphylococcus aureus; details: S. No. 6, S. aureus (MRSA) ST450
[5] = system: S. pneumoniae 1256; type: cell-based, Streptococcus pneumoniae; details: S. No. 56, S. pneumoniae 1256
[6] = system: S. pneumoniae 1275; type: cell-based, Streptococcus pneumoniae; details: S. No. 57, S. pneumoniae 1275
[7] = system: E. faecalis 21777; type: cell-based; details: S. No. 18, E. faecalis 21777
[8] = system: S. pneumoniae AB 29; type: cell-based, Streptococcus pneumoniae
[9] = system: S. pneumoniae AB 17; type: cell-based, Streptococcus pneumoniae; details: S. No. 40, S. pneumoniae AB 17
[10] = system: S pneumoniae 1294.; type: cell-based, Streptococcus pneumoniae
[11] = system: S. epidermidis 358; type: cell-based, Staphylococcus epidermidis; details: S. No. 14, S. epidermidis 358
[12] = system: Serratia marcescens 12999; type: cell-based; details: S. No. 29, Serratia marcescens 12999
[13] = system: S. aureus (Smith 49951); type: cell-based, Staphylococcus aureus; details: S. No. 9, S. aureus (Smith 49951)
[14] = system: S. pneumoniae AB-3; type: cell-based, Streptococcus pneumoniae; details: S. No. 32, S. pneumoniae AB-3
[15] = system: S. pneumoniae CS1221; type: cell-based, Streptococcus pneumoniae; details: S. No. 34, S. pneumoniae CS1221
[16] = system: S. pneumoniae AB 22; type: cell-based, Streptococcus pneumoniae
[17] = system: S. pneumoniae ATCC 49619; type: cell-based, Streptococcus pneumoniae; details: S. No. 48, S. pneumoniae ATCC 49619
[18] = system: S. aureus ATCC29213; type: cell-based, Staphylococcus aureus; details: S. No. 2, S. aureus ATCC29213
[19] = system: S. pyogenes 25147; type: cell-based, Streptococcus pyogenes
[20] = system: S. epidermidis (MRSE)32965; type: cell-based, Staphylococcus epidermidis
[21] = system: E. faecium 398(VRE); type: cell-based, Enterococcus faecium; details: S. No. 22, E. faecium 398(VRE)
[22] = system: (MRSA) 562; type: cell-based, Staphylococcus aureus; details: S. No. 8, (MRSA) 562
[23] = system: S. pneumoniae CS 1687; type: cell-based, Streptococcus pneumoniae
[24] = system: S. pneumoniae AB-2; type: cell-based, Streptococcus pneumoniae
[25] = system: S. pneumoniae AB 34; type: cell-based, Streptococcus pneumoniae; details: S. No. 49, S. pneumoniae AB 34
[26] = system: E. faecalis SP 346 (VRE); type: cell-based; details: S. No. 20, E. faecalis SP 346 (VRE)
[27] = system: Salmonella 205; type: cell-based; details: S. No. 26, Salmonella 205
Method: The compounds of the invention display antibacterial activity when tested by the agar incorporation method. The following minimum inhibitory concentrations (μg/ml) were obtained for representative compounds of the invention which are given below in the following tables.
Briefly, the compounds were dissolved in DMSO and doubling dilution of the compounds were incorporated into Meer Hilton agar before solidification. Inoculum was prepared by suspending 4 to 5 colonies into 5 ml of normal saline solution and adjusting the turbidity to 0.5 Macfarland turbidity standard tables (1.5×10^8 CFU/ml), after appropriate dilutions, 10^4 CFU/spot was transfered into the surface of dried plate and incubated for 18 hours (24 hours for MRSN studies). The concentration showing no growth of the inoculated culture was recorded as the MIC. Appropriate ATCC standard strains were simultaneously tested and result recorded only when the MIC's against standard antibiotics were within the acceptable range.

[28] = system: S. pneumoniae AB 30; type: cell-based, Streptococcus pneumoniae
[29] = system: S. pneumoniae AB 25; type: cell-based, Streptococcus pneumoniae
[30] = system: S. aureus SG 511; type: cell-based, Staphylococcus aureus
[31] = system: P. aeruginosa ATCC 27853; type: cell-based; details: S. No. 28, P. aeruginosa ATCC 27853
[32] = Enterococcus faecalis, read-out: MIC
[33] = Staphylococcus aureus, read-out: MIC
[34] = Streptococcus pneumoniae, read-out: MIC

Measured: MIC

CC(=O)NC[C@H]1CN(c2ccc(N3CCN(c4ccc([N+](=O)[O-])s4)CC3)c(F)c2)C(=O)O1 [Compound No. 1, (S)—N-[[3-[3-Fluoro-4-[4-(5-nitro-2-thienyl)-1-piperazinyl]phenyl]-2-oxo-5-oxazolidinyl]methyl]acetamide]
0.25 µg/mL: [1]; [32] | [4]; [33] | [5]; [34] | [7]; [32] | [11]; Staphylococcus epidermidis, read-out: MIC | [13]; [33] | [18]; [33] | [21]; Enterococcus faecium, read-out: MIC | [22]; [33] | [25]; Streptococcus pneumoniae, AB34, read-out: MIC | [26]; [32]
> 16 µg/mL: [12]; read-out: MIC | [27]; read-out: MIC | [31]; Pseudomonas aeruginosa, ATCC27853, read-out: MIC
0.125 µg/mL: [2]; Streptococcus pyogenes, 19615 | [3] | [8]; Streptococcus pneumoniae, AB29 | [10]; Streptococcus pneumoniae, 1294. | [16]; Streptococcus pneumoniae, AB22 | [19]; Streptococcus pyogenes, 25147 | [20]; Staphylococcus epidermidis, MRSE | [23]; Streptococcus pneumoniae, CS1687 | [24]; Streptococcus pneumoniae, AB2 | [28]; Streptococcus pneumoniae, AB30 | [29]; Streptococcus pneumoniae, AB25 | [30]; Staphylococcus aureus, SG511
0.06 µg/mL: [6]; [34] | [9]; Streptococcus pneumoniae, AB17, read-out: MIC | [14]; Streptococcus pneumoniae, AB3, read-out: MIC | [15]; [34] | [17]; Streptococcus pneumoniae, ATCC49619, read-out: MIC

(S)—N-[[3-[-3-Fluoro-4-[(5-nitro-2-thienyl)-3-methyl-1-piperazinyl]phenyl]-2-oxo-5-oxazolidinyl]methyl]acetamide [Compound No. 10]
0.25 µg/mL: [3]; S. No. 15, S. haemo ATCC 29970 | [5] | [6] | [28]; S. No. 47, S. pneumoniae AB 30
0.5 µg/mL: [2]; S. No. 51, S. pyogenes 19615 | [8]; S. No. 46, S. pneumoniae AB 29 | [9] | [10]; S. No. 55, S pneumoniae 1294. | [11] | [14] | [15] | [16]; S. No. 42, S. pneumoniae AB 22 | [17] | [19]; S. No. 52, S. pyogenes 25147 | [20]; S. No. 13, S. epidermidis (MRSE)32965 | [21] | [23]; S. No. 44, S. pneumoniae CS 1687 | [24]; S. No. 31, S. pneumoniae AB-2 | [29]; S. No. 45, S. pneumoniae AB 25 | [30]; S. No. 3, S. aureus SG 511
>8 µg/mL: [12] | [27] | [31]
1 µg/mL: [1] | [4] | [7] | [13] | [18] | [22] | [25] | [26]
